Each block holds one compound with its values, some of them ahead of it.
Experiments:
Histone deacetylase 4 = Histone deacetylase 4 (Homo sapiens, UniProt P56524); experiment: Inhibition of human recombinant HDAC4 using Ac-Leu-Gly-Lys(Tfa)-AMC as substrate incubated for 24 hrs by fluorescence based Envision plate reader analysis
[1] = molecular target: Cyclin-dependent kinase 7 (Homo sapiens, UniProt P50613)
Description: Inhibition of CDK7 (unknown origin) using ULight 4EBP1 peptide as substrate incubated for 2 hrs in presence of ATP by FRET assay

Histone deacetylase 3 = Histone deacetylase 3 (Homo sapiens, UniProt O15379)
[2] = molecular target: Cyclin-dependent kinase 9 (Homo sapiens, UniProt P50750)
Description: Inhibition of CDK9 (unknown origin) using ULight 4EBP1 peptide as substrate incubated for 2 hrs in presence of ATP by FRET assay

Histone deacetylase 1 = Histone deacetylase 1 (Homo sapiens, UniProt Q13547)
Description: Inhibition of human recombinant HDAC1 using Ac-Lys-Tyr-Lys(eta-acetyl)-AMC as substrate incubated for 24 hrs by fluorescence based Envision plate reader analysis

[3] = molecular target: Protein deacetylase HDAC6 (Homo sapiens, UniProt Q9UBN7)
Description: Inhibition of human recombinant HDAC6 using Boc-Lys(eta-acetyl)-AMC as substrate incubated for 24 hrs by fluorescence based Envision plate reader analysis

[4] = molecular target: Cyclin-dependent kinase 2 (Homo sapiens, UniProt P24941); experiment: Inhibition of CDK2 (unknown origin) using ULight 4EBP1 peptide as substrate incubated for 2 hrs in presence of ATP by FRET assay
MV4-11 [5] = experiment: Antitumor activity against human MV4-11 cells xenografted in female nu/nu mouse assessed as test to control ratio at 50 mg/kg, sc bid for 19 days; format: functional; conditions: time 19 day
[6] = molecular target: Serine/threonine-protein kinase pim-1 (Homo sapiens, UniProt P11309); experiment: Inhibition of PIM1 (unknown origin)
[7] = molecular target: Tyrosine-protein kinase JAK3 (Homo sapiens, UniProt P52333); experiment: Inhibition of JAK3 (unknown origin)
[8] = molecular target: Ribosomal protein S6 kinase beta-1 (Homo sapiens, UniProt P23443); experiment: Inhibition of P70S6K (unknown origin)
[9] = molecular target: Epidermal growth factor receptor (Homo sapiens, UniProt P00533); experiment: Inhibition of EGFR (unknown origin)
[10] = molecular target: Serine/threonine-protein kinase Chk1 (Homo sapiens, UniProt O14757); experiment: Inhibition of CHK1 (unknown origin)
[11] = molecular target: Tyrosine-protein kinase BTK (Homo sapiens, UniProt Q06187); experiment: Inhibition of BTK (unknown origin)
[12] = molecular target: Interleukin-1 receptor-associated kinase 4 (Homo sapiens, UniProt Q9NWZ3); experiment: Inhibition of IRAK4 (unknown origin)
[13] = molecular target: Receptor-type tyrosine-protein kinase FLT3 (Homo sapiens, UniProt P36888); experiment: Inhibition of FLT3 (unknown origin)
Aurora kinase A = Aurora kinase A (Homo sapiens, UniProt O14965); experiment: Inhibition of AurorA (unknown origin)
[14] = molecular target: Serine/threonine-protein kinase 17B (Homo sapiens, UniProt O94768); experiment: Inhibition of DRAK2 (unknown origin)
KG-1 = experiment: Antiproliferative activity against human KG-1 cells incubated for 72 hrs by celltiter-glo luminescent assay; conditions: KG-1, 72 h
Rec1 = experiment: Antiproliferative activity against human REC1 cells incubated for 72 hrs by celltiter-glo luminescent assay; conditions: Rec1, 72 h
A549 = experiment: Antiproliferative activity against human A549 cells incubated for 72 hrs by celltiter-glo luminescent assay; format: functional, cell-based; conditions: A549, 72 h
MV4-11 [15] = experiment: Antiproliferative activity against human MV4-11 cells incubated for 72 hrs by celltiter-glo luminescent assay; conditions: MV4-11, 72 h
CESS = experiment: Antiproliferative activity against human CESS cells incubated for 72 hrs by celltiter-glo luminescent assay
HT-29 = experiment: Antiproliferative activity against human HT-29 cells incubated for 72 hrs by celltiter-glo luminescent assay; conditions: HT-29, 72 h
PC-9 = experiment: Antiproliferative activity against human PC-9 cells incubated for 72 hrs by celltiter-glo luminescent assay; conditions: PC-9, 72 h

Sequence of Histone deacetylase 4 (P56524 whole entry): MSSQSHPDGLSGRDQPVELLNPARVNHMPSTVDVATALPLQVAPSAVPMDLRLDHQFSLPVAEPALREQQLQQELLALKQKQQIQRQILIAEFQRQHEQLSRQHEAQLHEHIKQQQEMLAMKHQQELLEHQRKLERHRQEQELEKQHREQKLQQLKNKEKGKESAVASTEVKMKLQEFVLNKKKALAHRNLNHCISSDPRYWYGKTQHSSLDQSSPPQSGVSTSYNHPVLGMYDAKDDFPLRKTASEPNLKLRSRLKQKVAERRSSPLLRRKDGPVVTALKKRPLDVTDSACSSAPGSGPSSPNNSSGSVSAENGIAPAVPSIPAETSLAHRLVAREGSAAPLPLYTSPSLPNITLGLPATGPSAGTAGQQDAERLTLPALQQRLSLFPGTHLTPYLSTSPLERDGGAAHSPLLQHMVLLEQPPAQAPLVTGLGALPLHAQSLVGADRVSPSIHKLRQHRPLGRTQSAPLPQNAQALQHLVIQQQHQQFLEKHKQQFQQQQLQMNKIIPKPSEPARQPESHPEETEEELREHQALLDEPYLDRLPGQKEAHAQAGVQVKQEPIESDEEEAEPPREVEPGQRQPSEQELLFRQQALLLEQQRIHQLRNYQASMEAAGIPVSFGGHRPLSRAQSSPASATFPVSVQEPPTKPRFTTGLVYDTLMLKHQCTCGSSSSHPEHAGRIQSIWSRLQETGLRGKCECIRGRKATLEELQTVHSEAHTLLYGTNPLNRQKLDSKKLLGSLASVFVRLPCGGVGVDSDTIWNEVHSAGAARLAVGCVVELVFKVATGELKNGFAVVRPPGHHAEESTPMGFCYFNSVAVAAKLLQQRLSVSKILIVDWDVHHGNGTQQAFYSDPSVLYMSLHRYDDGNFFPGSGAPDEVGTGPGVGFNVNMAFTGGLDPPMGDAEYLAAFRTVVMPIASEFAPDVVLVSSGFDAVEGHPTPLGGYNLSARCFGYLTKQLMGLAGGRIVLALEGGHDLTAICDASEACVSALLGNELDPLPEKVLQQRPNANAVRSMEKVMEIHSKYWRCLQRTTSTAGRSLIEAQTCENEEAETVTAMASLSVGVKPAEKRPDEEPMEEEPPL
Sequence of Cyclin-dependent kinase 9 (P50750 whole entry): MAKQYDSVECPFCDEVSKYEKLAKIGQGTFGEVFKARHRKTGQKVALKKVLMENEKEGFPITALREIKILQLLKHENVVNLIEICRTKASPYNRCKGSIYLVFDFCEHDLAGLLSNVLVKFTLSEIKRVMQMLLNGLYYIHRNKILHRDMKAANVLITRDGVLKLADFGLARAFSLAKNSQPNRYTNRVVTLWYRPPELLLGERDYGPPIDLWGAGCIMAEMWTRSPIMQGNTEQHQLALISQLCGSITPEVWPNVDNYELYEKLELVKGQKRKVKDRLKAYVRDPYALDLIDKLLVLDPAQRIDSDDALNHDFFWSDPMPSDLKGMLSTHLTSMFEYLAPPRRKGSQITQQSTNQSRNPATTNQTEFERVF
Sequence of Cyclin-dependent kinase 7 (P50613 whole entry): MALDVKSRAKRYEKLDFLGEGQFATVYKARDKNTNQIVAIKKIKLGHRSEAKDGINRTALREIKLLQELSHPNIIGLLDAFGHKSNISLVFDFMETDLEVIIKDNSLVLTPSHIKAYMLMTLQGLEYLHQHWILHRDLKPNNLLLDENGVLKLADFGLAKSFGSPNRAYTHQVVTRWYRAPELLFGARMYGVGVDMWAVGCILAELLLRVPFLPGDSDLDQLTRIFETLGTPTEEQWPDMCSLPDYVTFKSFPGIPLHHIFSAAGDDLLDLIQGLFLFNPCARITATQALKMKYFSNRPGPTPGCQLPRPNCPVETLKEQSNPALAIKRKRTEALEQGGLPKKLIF
Sequence of Interleukin-1 receptor-associated kinase 4 (Q9NWZ3 whole entry): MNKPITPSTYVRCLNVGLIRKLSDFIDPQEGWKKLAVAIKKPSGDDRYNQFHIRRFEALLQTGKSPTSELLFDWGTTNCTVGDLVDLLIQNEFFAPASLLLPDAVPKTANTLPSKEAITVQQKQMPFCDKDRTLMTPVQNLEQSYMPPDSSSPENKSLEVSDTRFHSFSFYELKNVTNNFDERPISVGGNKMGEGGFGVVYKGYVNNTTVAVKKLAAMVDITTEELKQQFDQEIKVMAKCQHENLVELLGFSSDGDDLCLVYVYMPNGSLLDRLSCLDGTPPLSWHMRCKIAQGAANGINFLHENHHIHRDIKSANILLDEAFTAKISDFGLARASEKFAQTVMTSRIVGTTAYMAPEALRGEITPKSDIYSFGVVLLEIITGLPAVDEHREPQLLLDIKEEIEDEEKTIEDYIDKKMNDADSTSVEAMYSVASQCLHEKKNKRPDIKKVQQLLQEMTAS
Sequence of Tyrosine-protein kinase BTK (Q06187 whole entry): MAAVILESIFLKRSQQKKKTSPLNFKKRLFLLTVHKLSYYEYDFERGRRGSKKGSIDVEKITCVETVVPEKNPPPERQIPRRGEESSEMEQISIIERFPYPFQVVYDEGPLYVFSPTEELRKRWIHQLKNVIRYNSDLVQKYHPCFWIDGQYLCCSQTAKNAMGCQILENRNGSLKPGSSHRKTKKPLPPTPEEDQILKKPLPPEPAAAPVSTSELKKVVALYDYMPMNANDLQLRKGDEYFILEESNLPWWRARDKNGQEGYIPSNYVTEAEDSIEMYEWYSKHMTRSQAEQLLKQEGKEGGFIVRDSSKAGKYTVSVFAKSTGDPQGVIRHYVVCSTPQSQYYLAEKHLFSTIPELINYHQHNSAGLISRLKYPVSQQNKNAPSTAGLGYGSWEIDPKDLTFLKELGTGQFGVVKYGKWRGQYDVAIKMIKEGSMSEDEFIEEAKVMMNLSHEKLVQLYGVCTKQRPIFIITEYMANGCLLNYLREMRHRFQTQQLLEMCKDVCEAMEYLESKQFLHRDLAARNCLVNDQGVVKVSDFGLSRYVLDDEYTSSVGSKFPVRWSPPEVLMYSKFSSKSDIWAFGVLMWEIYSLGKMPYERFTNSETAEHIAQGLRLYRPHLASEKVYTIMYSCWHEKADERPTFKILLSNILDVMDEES
Sequence of Serine/threonine-protein kinase pim-1 (P11309 whole entry): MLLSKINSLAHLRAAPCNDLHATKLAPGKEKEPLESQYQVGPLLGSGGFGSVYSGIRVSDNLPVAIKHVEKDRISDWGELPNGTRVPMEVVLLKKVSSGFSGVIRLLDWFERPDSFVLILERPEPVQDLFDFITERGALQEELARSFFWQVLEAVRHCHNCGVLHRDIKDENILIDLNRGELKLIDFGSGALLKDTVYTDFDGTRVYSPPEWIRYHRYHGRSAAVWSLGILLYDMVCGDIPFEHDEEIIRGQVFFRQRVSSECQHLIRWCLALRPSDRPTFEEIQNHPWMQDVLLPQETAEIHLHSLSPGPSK
Sequence of Aurora kinase A (O14965 whole entry): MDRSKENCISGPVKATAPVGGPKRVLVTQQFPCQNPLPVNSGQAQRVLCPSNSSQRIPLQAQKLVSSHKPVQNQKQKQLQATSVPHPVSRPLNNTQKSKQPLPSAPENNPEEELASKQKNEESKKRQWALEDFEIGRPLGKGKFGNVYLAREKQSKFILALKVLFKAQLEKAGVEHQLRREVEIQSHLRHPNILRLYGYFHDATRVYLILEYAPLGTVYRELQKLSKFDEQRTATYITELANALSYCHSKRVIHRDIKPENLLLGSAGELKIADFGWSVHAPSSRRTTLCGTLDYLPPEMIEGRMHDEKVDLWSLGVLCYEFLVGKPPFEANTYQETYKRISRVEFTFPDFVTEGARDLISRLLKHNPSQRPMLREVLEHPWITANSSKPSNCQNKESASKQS
Sequence of Protein deacetylase HDAC6 (Q9UBN7 whole entry): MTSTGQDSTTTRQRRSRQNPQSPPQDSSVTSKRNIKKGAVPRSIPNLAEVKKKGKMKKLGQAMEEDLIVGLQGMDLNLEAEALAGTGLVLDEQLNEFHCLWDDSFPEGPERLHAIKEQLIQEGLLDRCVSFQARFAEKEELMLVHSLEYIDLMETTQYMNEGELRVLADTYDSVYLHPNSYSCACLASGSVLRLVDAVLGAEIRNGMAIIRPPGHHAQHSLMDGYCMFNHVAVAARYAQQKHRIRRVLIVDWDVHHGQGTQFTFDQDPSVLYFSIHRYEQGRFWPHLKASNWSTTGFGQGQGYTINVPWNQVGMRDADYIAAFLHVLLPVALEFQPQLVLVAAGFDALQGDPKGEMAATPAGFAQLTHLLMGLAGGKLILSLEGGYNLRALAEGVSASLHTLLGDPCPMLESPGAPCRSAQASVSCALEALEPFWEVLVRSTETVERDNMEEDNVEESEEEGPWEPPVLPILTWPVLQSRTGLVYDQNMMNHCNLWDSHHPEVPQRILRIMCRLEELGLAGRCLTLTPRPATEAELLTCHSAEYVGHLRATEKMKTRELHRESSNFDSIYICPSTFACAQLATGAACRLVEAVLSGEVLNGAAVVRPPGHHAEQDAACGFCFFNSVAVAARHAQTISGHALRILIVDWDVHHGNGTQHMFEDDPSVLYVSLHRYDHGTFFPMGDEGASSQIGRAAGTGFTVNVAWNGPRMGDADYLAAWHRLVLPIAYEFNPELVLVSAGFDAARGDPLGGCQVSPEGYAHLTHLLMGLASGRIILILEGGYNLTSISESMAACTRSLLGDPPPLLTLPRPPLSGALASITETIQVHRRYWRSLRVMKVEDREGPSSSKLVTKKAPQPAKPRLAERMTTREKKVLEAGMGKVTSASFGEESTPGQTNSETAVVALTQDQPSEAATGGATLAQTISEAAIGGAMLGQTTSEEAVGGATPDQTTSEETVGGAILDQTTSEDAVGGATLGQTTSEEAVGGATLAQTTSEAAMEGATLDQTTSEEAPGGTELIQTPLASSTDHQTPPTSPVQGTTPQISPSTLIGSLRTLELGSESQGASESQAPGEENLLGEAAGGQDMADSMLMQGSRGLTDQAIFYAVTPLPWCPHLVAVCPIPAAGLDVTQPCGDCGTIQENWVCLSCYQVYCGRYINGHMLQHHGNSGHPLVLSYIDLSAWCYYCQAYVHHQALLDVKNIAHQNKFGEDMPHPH

SMILES: O=C(/C=C/c1ccc(Nc2ncc(Cl)c(OC3CCCCC3)n2)cc1)NO
- IC50 (Histone deacetylase 3): 7.21 µM
- IC50 [2]: 7.89 µM
- IC50 (Histone deacetylase 1): > 10 µM
- IC50 [3]: 0.646 µM

SMILES: COc1cc(F)ccc1-c1cc(Nc2ccc(/C=C/C(=O)Nc3ccccc3N)cc2)ncc1F
- IC50 (Histone deacetylase 3): 3.55 µM
- IC50 [2]: 0.0684 µM
- IC50 (Histone deacetylase 1): > 20 µM
- IC50 [3]: > 20 µM

SMILES: COc1cc(F)ccc1-c1cc(Nc2ccc(NC(=O)CCCCCCC(=O)Nc3ccccc3N)cc2)ncc1F
- IC50 (Histone deacetylase 4): > 20 µM
- IC50 [1]: > 10 µM

SMILES: CCCNNC(=O)CCCCCCn1cc(Nc2ncc(Cl)c(-c3cnc4ccccn34)n2)cn1
- IC50 (Histone deacetylase 4): > 20 µM
- IC50 [1]: > 10 µM
- IC50 [4]: > 10 µM

SMILES: CCCNNC(=O)c1ccc(Cn2cc(Nc3ncc(Cl)c(-c4cnc5ccc(-c6ccccc6)cn45)n3)cn2)cc1
- IC50 (Histone deacetylase 4): > 20 µM
- IC50 [1]: > 10 µM
- IC50 [4]: > 10 µM

SMILES: Nc1ccn([C@@H]2O[C@H](CO)[C@@H](O)[C@@H]2O)c(=O)n1 [CYTARABINE]
- T/C (MV4-11 [5]): 33.41%

SMILES: N#CC1(CNc2cccc(-c3cc(Nc4cnn(Cc5ccc(C(=O)Nc6ccccc6N)cc5)c4)ncc3Cl)n2)CCOCC1
- IC50 (Histone deacetylase 4): > 20 µM
- IC50 [6]: > 10 µM
- IC50 [7]: > 10 µM
- IC50 [8]: > 10 µM
- IC50 [9]: > 10 µM
- IC50 [10]: > 10 µM
- IC50 [11]: > 10 µM
- IC50 [12]: > 10 µM
- IC50 [13]: > 10 µM
- IC50 (Aurora kinase A): > 10 µM
- IC50 [14]: > 10 µM

SMILES: CCCNNC(=O)CCCCCn1cc(Nc2ncc(Cl)c(-c3cnc4ccccn34)n2)cn1
- IC50 (Histone deacetylase 4): > 20 µM
- IC50 [1]: > 10 µM
- IC50 [4]: > 10 µM

SMILES: O=C(CCCCCCC(=O)Nc1ccccc1)NO [VORINOSTAT]
- IC50 (KG-1): 0.79 µM

SMILES: COC[C@@H](C)N[C@H]1CC[C@H](Nc2cc(-c3cccc(NCC4(C#N)CCOCC4)n3)c(Cl)cn2)CC1
- IC50 (KG-1): 0.02 µM
- IC50 (Rec1): 0.03 µM
- IC50 (A549): 5.78 µM
- IC50 (MV4-11 [15]): 0.003 µM
- IC50 [2]: 0.0041 µM
- IC50 (CESS): 0.01 µM
- IC50 (HT-29): 0.02 µM
- IC50 [1]: > 10 µM
- IC50 (PC-9): 0.03 µM
- IC50 [4]: > 10 µM

SMILES: N#CC1(CNc2cccc(-c3cc(Nc4cnn(CCCCCCC(=O)Nc5ccccc5N)c4)ncc3Cl)n2)CCOCC1
- IC50 (Histone deacetylase 4): > 20 µM
- IC50 [1]: > 10 µM

SMILES: CCCNNC(=O)c1ccc(Cn2cc(Nc3ncc(Cl)c(-c4cnc5ccccn45)n3)cn2)cc1
- IC50 (Histone deacetylase 4): > 20 µM
- IC50 [6]: > 10 µM
- IC50 [7]: 2.38 µM
- IC50 [8]: 0.371 µM
- IC50 [9]: > 10 µM
- IC50 [10]: > 10 µM
- IC50 [1]: 0.973 µM
- IC50 [11]: 9.13 µM
- IC50 [12]: > 10 µM
- IC50 [13]: 0.0304 µM
- IC50 (Aurora kinase A): > 10 µM
- IC50 [14]: > 10 µM

SMILES: CCCNNC(=O)CCCCCn1cc(Nc2ncc(Cl)c(-c3cnc4ccc(-c5ccccc5)cn34)n2)cn1
- IC50 (Histone deacetylase 4): > 20 µM
- IC50 [1]: > 10 µM

Results, then the compound that gave them:

- IC50 (Histone deacetylase 4): > 10 µM
- IC50 [1]: 0.566 µM
SMILES: O=C(CCCCCn1cc(Nc2ncc(Cl)c(-c3cnc4ccccn34)n2)cn1)NO

- IC50 (Histone deacetylase 4): > 10 µM
- IC50 [1]: > 10 µM
SMILES: COc1cc(F)ccc1-c1cc(Nc2ccc(NC(=O)CCCCCCC(=O)NO)cc2)ncc1F

- IC50 (Histone deacetylase 4): 2.5 µM
- IC50 [1]: > 10 µM
SMILES: N#CC1(CNc2cccc(-c3cc(Nc4cnn(CCCCCC(=O)NO)c4)ncc3Cl)n2)CCOCC1

- IC50 (Histone deacetylase 4): > 10 µM
- IC50 [1]: 2.81 µM
SMILES: O=C(CCCCCCn1cc(Nc2ncc(Cl)c(-c3cnc4ccccn34)n2)cn1)NO

- IC50 (Histone deacetylase 4): > 10 µM
- IC50 [1]: > 10 µM
SMILES: COc1cc(F)ccc1-c1cc(Nc2cnn(CCCCCC(=O)NO)c2)ncc1F

- IC50 (Histone deacetylase 4): > 10 µM
- IC50 [1]: > 10 µM
SMILES: COc1cc(F)ccc1-c1cc(Nc2cnn(CCCCCCC(=O)NO)c2)ncc1F

- IC50 (Histone deacetylase 4): 4.4 µM
- IC50 [1]: > 10 µM
SMILES: N#CC1(CNc2cccc(-c3cc(Nc4cnn(CCCCCCC(=O)NO)c4)ncc3Cl)n2)CCOCC1

- IC50 (Histone deacetylase 4): 1.08 µM
- IC50 [1]: > 10 µM
SMILES: N#CC1(CNc2cccc(-c3cc(Nc4cnn(Cc5ccc(C(=O)NO)cc5)c4)ncc3Cl)n2)CCOCC1

From ChEMBL document CHEMBL5584345, “Discovery of Novel 2-Aminopyridine-Based and 2-Aminopyrimidine-Based Derivatives as Potent CDK/HDAC Dual Inhibitors for the Treatment of Refractory Solid Tumors and Hematological Malignancies” (J Med Chem, 2024)
